What was measured:
Assay in all cases: relative viability (nuclei count vs DMSO), 5 days (fraction); higher = more cells survive
Vemurafenib + Pictilisib = compound: CCCS(=O)(=O)Nc1ccc(F)c(C(=O)c2c[nH]c3ncc(-c4ccc(Cl)cc4)cc23)c1F [Vemurafenib] + CS(=O)(=O)N1CCN(Cc2cc3nc(-c4cccc5[nH]ncc45)nc(N4CCOCC4)c3s2)CC1 [Pictilisib] (partner 1 µM)
How it was run: (§1)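 Five library-drug doses in √10 steps were combined with a fixed anchor-drug dose, or a single drug was given alone, by pin tool to lung cancer cell lines in 1536-well plates the day after seeding. Nuclei were stained and counted after 5 days. Relative viability is the nuclei count in treated wells over that in vehicle wells, taken as the median of duplicate plates.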

OSI-027 + Navitoclax = compound: COc1cccc2cc(-c3nc([C@H]4CC[C@H](C(=O)O)CC4)n4ncnc(N)c34)[nH]c12 [OSI-027] + CC1(C)CCC(c2ccc(Cl)cc2)=C(CN2CCN(c3ccc(C(=O)NS(=O)(=O)c4ccc(N[C@H](CCN5CCOCC5)CSc5ccccc5)c(S(=O)(=O)C(F)(F)F)c4)cc3)CC2)C1 [Navitoclax] (partner 0.5 µM)
How it was run: as §1

Alpelisib + Luminespib = compound: Cc1nc(NC(=O)N2CCC[C@H]2C(N)=O)sc1-c1ccnc(C(C)(C)C(F)(F)F)c1 [Alpelisib] + CCNC(=O)c1noc(-c2cc(C(C)C)c(O)cc2O)c1-c1ccc(CN2CCOCC2)cc1 [Luminespib] (partner 0.01 µM)
How it was run: as §1

OSI-027 + Phenformin = compound: COc1cccc2cc(-c3nc([C@H]4CC[C@H](C(=O)O)CC4)n4ncnc(N)c34)[nH]c12 [OSI-027] + N=C(N)NC(=N)NCCc1ccccc1 [Phenformin] (partner 250 µM)
How it was run: as §1

| Cell Line | relative viability (Vemurafenib + Pictilisib; first compound 0.03162 µM) | relative viability (Vemurafenib + Pictilisib; first compound 0.1 µM) | relative viability (Vemurafenib + Pictilisib; first compound 1 µM) | relative viability (OSI-027 + Navitoclax; first compound 0.01 µM) | relative viability (OSI-027 + Navitoclax; first compound 0.03162 µM) | relative viability (OSI-027 + Navitoclax; first compound 0.1 µM) | relative viability (OSI-027 + Navitoclax; first compound 0.3162 µM) | relative viability (OSI-027 + Navitoclax; first compound 1 µM) | relative viability (Alpelisib + Luminespib; first compound 0.04 µM) | relative viability (Alpelisib + Luminespib; first compound 0.1265 µM) | relative viability (Alpelisib + Luminespib; first compound 0.4 µM) | relative viability (Alpelisib + Luminespib; first compound 1.265 µM) | relative viability (Alpelisib + Luminespib; first compound 4 µM) | relative viability (OSI-027 + Phenformin; first compound 0.01 µM) | relative viability (OSI-027 + Phenformin; first compound 0.03162 µM) | relative viability (OSI-027 + Phenformin; first compound 0.1 µM) | relative viability (OSI-027 + Phenformin; first compound 0.3162 µM) | relative viability (OSI-027 + Phenformin; first compound 1 µM) | relative viability (Vemurafenib + Pictilisib; first compound 0.3162 µM) |
| --- | --- | --- | --- | --- | --- | --- | --- | --- | --- | --- | --- | --- | --- | --- | --- | --- | --- | --- | --- |
| NCI-H2405 | 0.347 | 0.467 | 0.48 | 0.858 | 0.791 | 0.768 | 0.636 | 0.384 | 0.736 | 0.463 | 0.658 | 0.486 | 0.418 | 0.39 | 0.355 | 0.338 | 0.327 | 0.27 | – |
| NCI-H727 | 0.353 | 0.32 | 0.315 | 0.406 | 0.418 | 0.477 | 0.378 | 0.318 | 0.419 | 0.444 | 0.3 | 0.371 | 0.345 | 0.569 | 0.546 | 0.557 | 0.466 | 0.407 | 0.568 |
| 201T | 0.651 | 0.67 | 0.677 | 1.25 | 1.24 | 1.2 | 1.22 | 1.13 | 1.08 | 1.02 | 1.02 | 0.961 | 0.956 | 0.477 | 0.45 | 0.445 | 0.407 | 0.371 | 0.702 |
| H3255 | 0.474 | – | 0.452 | 0.411 | 0.483 | 0.442 | 0.428 | 0.227 | 0.896 | 0.765 | 1.17 | 0.733 | 0.625 | 0.308 | 0.359 | 0.31 | 0.349 | 0.407 | 0.48 |
| NCI-H1395 | 0.672 | 0.613 | 0.521 | 1.16 | 0.998 | 1.03 | 0.85 | 0.79 | 0.568 | 0.663 | 0.755 | 0.604 | 0.724 | 0.446 | 0.431 | 0.396 | 0.401 | 0.369 | – |
| NCI-H1355 | 0.419 | 0.426 | 0.395 | 0.84 | 0.868 | 0.855 | 0.529 | 0.205 | 0.679 | 0.575 | 0.83 | 0.608 | 0.514 | 0.409 | 0.45 | 0.46 | 0.407 | 0.304 | 0.377 |
| IA-LM | 0.309 | 0.358 | 0.476 | 0.873 | 0.572 | 0.481 | 0.182 | 0.0688 | – | – | – | – | – | – | – | – | – | – | 0.758 |
| HCC-827 | 0.791 | – | 0.981 | 1.07 | 1.06 | 0.995 | 0.996 | 0.651 | 0.703 | 0.594 | 0.586 | 0.406 | 0.215 | 0.358 | 0.423 | 0.408 | 0.4 | 0.328 | 1.03 |
| NCI-H1703 | 0.245 | 0.21 | 0.252 | 0.864 | 1.11 | 0.991 | 0.625 | 0.512 | – | – | – | – | – | – | – | – | – | – | 0.233 |
| LCLC-103H | 0.585 | 0.506 | 0.59 | – | – | – | – | – | 0.97 | 0.993 | 1.04 | 0.72 | 0.735 | 0.348 | 0.337 | 0.36 | 0.284 | 0.272 | 0.584 |
| NCI-H1563 | 0.666 | 0.621 | 0.647 | – | – | – | – | – | 0.488 | 0.479 | 0.404 | 0.503 | 0.462 | 0.674 | 0.647 | 0.618 | 0.681 | 0.589 | 0.584 |
| NCI-H661 | 0.347 | 0.351 | 0.433 | – | – | – | – | – | 0.979 | 0.969 | 1.02 | 0.928 | 0.968 | 0.263 | 0.286 | 0.254 | 0.258 | 0.245 | 0.292 |
| SW 900 | – | – | – | – | – | – | – | – | 0.163 | 0.168 | 0.177 | 0.138 | 0.173 | – | 0.45 | 0.633 | 0.474 | 0.347 | – |
| EBC-1 | 0.36 | 0.335 | 0.36 | 0.382 | 0.33 | 0.432 | 0.239 | 0.203 | – | – | – | – | – | – | – | – | – | – | 0.335 |
| NCI-H1299 | 0.732 | 0.719 | 0.622 | 1.07 | 1.05 | 1.08 | 1.1 | 1 | – | – | – | – | – | – | – | – | – | – | 0.843 |
| NCI-H1623 | – | – | – | – | – | – | – | – | 0.487 | 0.374 | 0.477 | 0.385 | 0.417 | 0.583 | 0.603 | 0.485 | 0.424 | 0.32 | – |
| HCC-366 | 0.137 | 0.15 | 0.163 | 1.05 | 1.14 | 1.06 | 1.05 | 0.287 | – | – | – | – | – | 0.598 | 0.649 | 0.637 | 0.659 | 0.498 | – |
| NCI-H522 | – | – | – | – | – | – | – | – | 1.09 | 1.21 | 1.13 | 0.881 | 0.981 | 0.72 | 0.57 | 0.583 | 0.506 | 0.508 | – |
| A549 | 0.532 | 0.43 | 0.453 | 1.16 | 1.24 | 1.01 | 0.971 | 0.319 | – | – | – | – | – | 0.176 | 0.154 | 0.122 | 0.171 | 0.0806 | 0.607 |
| HCC-78 | 0.222 | 0.214 | 0.185 | 0.868 | 0.766 | 0.371 | 0.454 | 0.278 | – | – | – | – | – | 0.624 | 0.626 | 0.593 | 0.558 | 0.432 | 0.429 |
| ABC-1 | 0.751 | 0.536 | 0.753 | – | – | – | – | – | 0.432 | 0.932 | 0.554 | 0.228 | 0.391 | 0.237 | 0.244 | 0.236 | 0.2 | 0.197 | 0.658 |
| Calu-6 | 0.888 | 0.902 | 0.822 | 0.78 | 0.897 | 0.752 | 0.782 | 0.493 | – | – | – | – | – | – | – | – | – | – | 0.741 |

Reference: the supplement of paper PMC10307832
